Values joined by “and” are separate entries in the source; they are usually repeats but may differ in a detail not shown here. Equal values may be shown once. Results filed as inconclusive are left out.
Test system: BDF1 mice, B16 melanoma s.c., survival/tumor T/C
Test: NCI In Vivo Anticancer Drug Screen. Data for tumor model B16 Melanoma (subcutaneous) in B6D2F1 (BDF1) mice
Protocol: The antitumor activity of compounds was measured in mice bearing transplantable tumors. Survival or tumor size were measured and the results are expressed as the measurement made in the treated group (T) divided by the measurement made in the vehicle treated control group (C). The tumor model used in this assay is B16 Melanoma (subcutaneous) in B6D2F1 (BDF1) mice

SMILES: CO[C@H](C(=O)[C@@H](O)[C@@H](C)O)[C@@H]1Cc2cc3cc(OC4CC(OC5CC(O)C(O)C(C)O5)C(O)C(C)O4)c(C)c(O)c3c(O)c2C(=O)[C@H]1OC1CC(OC2CC(OC3CC(C)(O)C(O)C(C)O3)C(O)C(C)O2)C(O)C(C)O1 (some centres not stated)
- T/C (endpoint: median survival time, dose: 0.12 mg/kg/injection, schedule: Q01DX009 (ip), vehicle: saline, higher = longer survival): 100 % of control
- T/C (endpoint: median survival time, dose: 0.25 mg/kg/injection, schedule: Q01DX009 (ip), vehicle: saline, higher = longer survival): 114 % of control
- T/C (endpoint: median survival time, dose: 0.5 mg/kg/injection, schedule: Q01DX009 (ip), vehicle: saline, higher = longer survival): 116 % of control
- T/C (endpoint: median survival time, dose: 1.0 mg/kg/injection, schedule: Q01DX009 (ip), vehicle: saline, higher = longer survival): 118 % of control
- T/C (endpoint: median survival time, dose: 3.8 micrograms/kg/injection, schedule: Q01DX009 (ip), vehicle: water, higher = longer survival): 104 % of control
- T/C (endpoint: median survival time, dose: 7.5 micrograms/kg/injection, schedule: Q01DX009 (ip), vehicle: water, higher = longer survival): 107 % of control
- T/C (endpoint: median survival time, dose: 15.0 micrograms/kg/injection, schedule: Q01DX009 (ip), vehicle: water, higher = longer survival): 101 % of control
- T/C (endpoint: median survival time, dose: 30.0 micrograms/kg/injection, schedule: Q01DX009 (ip), vehicle: water, higher = longer survival): 114 % of control
- T/C (endpoint: median survival time, dose: 60.0 micrograms/kg/injection, schedule: Q01DX009 (ip), vehicle: water, higher = longer survival): 93 % of control
- T/C (endpoint: median survival time, dose: 120.0 micrograms/kg/injection, schedule: Q01DX009 (ip), vehicle: water, higher = longer survival): 91 % of control
- T/C (endpoint: median survival time, dose: 250.0 micrograms/kg/injection, schedule: Q01DX009 (ip), vehicle: water, higher = longer survival): 86 % of control

SMILES: O=P1(N(CCCl)CCCl)NCCCO1 (configuration not stated)
- T/C (endpoint: median survival time, dose: 15.0 mg/kg/injection, schedule: Q04DX003 (ip), vehicle: saline, higher = longer survival): 111 % of control
- T/C (endpoint: median survival time, dose: 30.0 mg/kg/injection, schedule: Q04DX003 (ip), vehicle: saline, higher = longer survival): 123 % of control
- T/C (endpoint: median survival time, dose: 60.0 mg/kg/injection, schedule: Q04DX003 (ip), vehicle: saline, higher = longer survival): 171 % of control
- T/C (endpoint: median survival time, dose: 120.0 mg/kg/injection, schedule: Q04DX003 (ip), vehicle: saline, higher = longer survival): 193 % of control
- T/C (endpoint: median survival time, dose: 200.0 mg/kg/injection, schedule: Q01DX001 (ip), vehicle: saline, higher = longer survival): 158 % of control
- T/C (endpoint: median tumor weight (est.), dose: 50.0 mg/kg/injection, schedule: Q01DX009 (ip), vehicle: saline, higher = larger tumour): 19 % of control and 40 % of control
- T/C (endpoint: median tumor weight (est.), dose: 100.0 mg/kg/injection, schedule: Q01DX009 (ip), vehicle: saline, higher = larger tumour): 19 % of control

SMILES: Cc1c(N)nc(C(CC(N)=O)NCC(N)C(N)=O)nc1C(=O)NC(C(=O)NC(C)C(O)C(C)C(=O)NC(C(=O)NCCc1nc(-c2nc(C(=O)NCCCNCCCc3ccccn3)cs2)cs1)C(C)O)C(OC1OC(CO)C(O)C(O)C1OC1OC(CO)C(O)C(OC(N)=O)C1O)c1cnc[nH]1 (configuration not stated)
- T/C (endpoint: median survival time, dose: 0.1 mg/kg/injection, schedule: Q01DX010 (ip), vehicle: water, higher = longer survival): 101 % of control
- T/C (endpoint: median survival time, dose: 0.2 mg/kg/injection, schedule: Q01DX010 (ip), vehicle: water, higher = longer survival): 116 % of control and 124 % of control
- T/C (endpoint: median survival time, dose: 0.4 mg/kg/injection, schedule: Q01DX010 (ip), vehicle: water, higher = longer survival): 96 % of control and 124 % of control
- T/C (endpoint: median survival time, dose: 1.6 mg/kg/injection, schedule: Q01DX010 (ip), vehicle: water, higher = longer survival): 117 % of control
- T/C (endpoint: median survival time, dose: 3.2 mg/kg/injection, schedule: Q01DX010 (ip), vehicle: water, higher = longer survival): 88 % of control

SMILES: O=C(O)CCC(=O)O
- T/C (endpoint: median survival time, dose: 5.0 mg/kg/injection, schedule: Q01DX009 (ip), vehicle: water, higher = longer survival): 117 % of control and 102 % of control
- T/C (endpoint: median survival time, dose: 40.0 mg/kg/injection, schedule: Q01DX009 (ip), vehicle: water, higher = longer survival): 114 % of control [middle of 6 runs]
- T/C (endpoint: median survival time, dose: 80.0 mg/kg/injection, schedule: Q01DX009 (ip), vehicle: water, higher = longer survival): 97 % of control [middle of 5 runs]
- T/C (endpoint: median survival time, dose: 160.0 mg/kg/injection, schedule: Q01DX009 (ip), vehicle: water, higher = longer survival): 96 % of control [middle of 4 runs]
